Four molecules from US5043332A, “Novel 11β-substituted -19-nor-steriods” (priority 1981, dated 1991) can be followed below.

Test [1] deals with T1, Androgen receptor of prostate of rats (Rattus norvegicus, UniProt P15207).
T1 construct: The prostates were removed, weighed and homogenized at 0° C; from tissue; host or cells: rat prostate, 105,000 g supernatant (castrated male Sprague-Dawley rats)
T1 sequence (P15207 1-902): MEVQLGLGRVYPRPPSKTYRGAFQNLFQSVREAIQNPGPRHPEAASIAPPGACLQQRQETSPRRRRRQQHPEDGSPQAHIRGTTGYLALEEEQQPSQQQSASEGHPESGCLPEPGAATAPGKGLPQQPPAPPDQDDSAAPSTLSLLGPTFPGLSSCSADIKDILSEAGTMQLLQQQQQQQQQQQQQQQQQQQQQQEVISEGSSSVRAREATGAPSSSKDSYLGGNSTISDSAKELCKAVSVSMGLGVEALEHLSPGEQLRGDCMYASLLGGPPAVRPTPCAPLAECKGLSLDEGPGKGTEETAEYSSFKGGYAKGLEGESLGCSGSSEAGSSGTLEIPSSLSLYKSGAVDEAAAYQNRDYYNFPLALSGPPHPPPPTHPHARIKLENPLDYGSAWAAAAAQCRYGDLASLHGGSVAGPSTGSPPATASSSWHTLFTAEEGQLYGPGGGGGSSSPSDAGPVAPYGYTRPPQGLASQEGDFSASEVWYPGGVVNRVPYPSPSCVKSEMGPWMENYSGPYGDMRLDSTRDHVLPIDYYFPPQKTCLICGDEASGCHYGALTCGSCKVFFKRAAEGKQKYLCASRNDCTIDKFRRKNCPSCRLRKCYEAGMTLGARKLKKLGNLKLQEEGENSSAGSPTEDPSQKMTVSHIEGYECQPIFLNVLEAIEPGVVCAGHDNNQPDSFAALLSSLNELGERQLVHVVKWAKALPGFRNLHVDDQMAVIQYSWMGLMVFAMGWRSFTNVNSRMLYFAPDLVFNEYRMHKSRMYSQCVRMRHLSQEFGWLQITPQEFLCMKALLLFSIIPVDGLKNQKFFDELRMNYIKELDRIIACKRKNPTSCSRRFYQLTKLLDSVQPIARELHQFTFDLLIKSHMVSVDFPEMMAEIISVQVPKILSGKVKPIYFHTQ
The test can be described thus: Androgen receptor binding (displacement of tritiated product P). Here is the method:
B. Androgen receptor of prostate of rats
Male Sprague-Dawley EPOS rats weighing of 160 to 200 g were castrated and 24 hours later, the animals were killed. The prostates were removed, weighed and homogenized at 0° C. with a polytetrafluoroethylene-glass Potter with a buffered TS solution (Tris, 10 mM, 0.25M Saccharose, HCl-pH of 7.4) using 1 g of tissue per 5 ml of TS. The homogenate was then ultracentrifuged at 105,000 g for 60 […] (T) of product P or 17α-methyl-Δ^4,9,11 -estratriene-17β-ol-3-one in the presence of increasing concentration (0-1,000×10^-9 M) of either cold P, cold testosterone or the test compound. The concentration of tied tritiated (B) was measured for each incubate by the technique of adsorption on carbon-dextran.
(§1) The calculation of the relative affinity of […] (ARL) was identical for all of the above receptor tests. One traced the following two curves: the percentage of tied tritiated hormone B/T as a function of the logarithm of the cold hormone concentration and B/T as a function of the logarithm of the concentration of the cold test product. One determined the line of the equation. [formula]
(§2) The intersection of the I50 line and the curves permits one to determine the concentrations of the cold hormone of the reference (CH) and the cold test compound (CX) which inhibit by 50% the tieing of tritiated hormone with the receptor. The relative affinity of tieing (ARL) of the test product was determined by the equation: [formula]

The target in test [2] is T2, Gluocorticoid receptor of thymus of rats (Rattus norvegicus, UniProt P06536).
T2 construct: The thymus were removed and homogenized at 0° C; from tissue; host or cells: rat thymus, 105,000 g supernatant (adrenalectomized male Sprague-Dawley rats)
T2 sequence (P06536 1-795): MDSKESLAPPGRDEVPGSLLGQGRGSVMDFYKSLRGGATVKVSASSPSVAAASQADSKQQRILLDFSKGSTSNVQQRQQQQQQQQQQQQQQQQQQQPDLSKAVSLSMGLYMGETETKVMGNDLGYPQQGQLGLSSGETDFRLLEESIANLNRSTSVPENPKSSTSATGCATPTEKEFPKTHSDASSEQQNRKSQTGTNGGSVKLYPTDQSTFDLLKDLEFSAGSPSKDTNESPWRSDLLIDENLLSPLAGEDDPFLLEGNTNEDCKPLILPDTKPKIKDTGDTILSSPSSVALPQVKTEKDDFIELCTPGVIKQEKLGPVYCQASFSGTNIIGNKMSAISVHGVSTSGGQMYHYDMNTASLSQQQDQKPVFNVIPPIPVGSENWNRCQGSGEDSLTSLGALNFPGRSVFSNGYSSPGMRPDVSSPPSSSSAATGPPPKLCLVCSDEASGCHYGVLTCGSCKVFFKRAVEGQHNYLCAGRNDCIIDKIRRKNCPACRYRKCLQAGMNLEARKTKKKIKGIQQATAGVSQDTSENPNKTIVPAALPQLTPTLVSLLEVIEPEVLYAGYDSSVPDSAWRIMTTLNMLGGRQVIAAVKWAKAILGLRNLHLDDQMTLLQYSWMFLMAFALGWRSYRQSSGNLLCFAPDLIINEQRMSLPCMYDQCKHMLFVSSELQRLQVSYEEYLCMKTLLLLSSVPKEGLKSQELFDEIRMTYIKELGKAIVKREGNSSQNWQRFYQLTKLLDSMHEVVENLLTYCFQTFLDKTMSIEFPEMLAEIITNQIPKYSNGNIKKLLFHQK
The test can be described thus: Glucocorticoid receptor binding (displacement of tritiated dexamethasone). Conditions: incubation 4 H at 0° C. Here is the method:
D. Gluocorticoid receptor of thymus of rats
Male Sprague-Dawley EPOS rats weighing 160 to 200 g were surrenalectomized and the animals were killed 4 to 8 days later. The thymus were removed and homogenized at 0° C. in a buffered TS solution of 10 mM, Tris, 0.25M of Saccharose, 2 mM of dithiothreitol HCl for a pH of 7.4 using a polytetrafluoroethylene-glass Potter at a rate of 1 g of tissue per 10 ml of TS. […] The concentration of tied tritiated dexamethasone (B) was measured for each incubate by the adsorption on carbon-dextran technique.
as §1, §2

The target of test [3] is T3, Estrogen receptor of uterus of mice (Mus musculus, UniProt P19785).
T3 construct: the uterus were removed and homogenized at 0° C; from tissue; host or cells: mouse uterus, 105,000 g supernatant (immature females 18 to 21 days old)
T3 sequence (P19785 1-599): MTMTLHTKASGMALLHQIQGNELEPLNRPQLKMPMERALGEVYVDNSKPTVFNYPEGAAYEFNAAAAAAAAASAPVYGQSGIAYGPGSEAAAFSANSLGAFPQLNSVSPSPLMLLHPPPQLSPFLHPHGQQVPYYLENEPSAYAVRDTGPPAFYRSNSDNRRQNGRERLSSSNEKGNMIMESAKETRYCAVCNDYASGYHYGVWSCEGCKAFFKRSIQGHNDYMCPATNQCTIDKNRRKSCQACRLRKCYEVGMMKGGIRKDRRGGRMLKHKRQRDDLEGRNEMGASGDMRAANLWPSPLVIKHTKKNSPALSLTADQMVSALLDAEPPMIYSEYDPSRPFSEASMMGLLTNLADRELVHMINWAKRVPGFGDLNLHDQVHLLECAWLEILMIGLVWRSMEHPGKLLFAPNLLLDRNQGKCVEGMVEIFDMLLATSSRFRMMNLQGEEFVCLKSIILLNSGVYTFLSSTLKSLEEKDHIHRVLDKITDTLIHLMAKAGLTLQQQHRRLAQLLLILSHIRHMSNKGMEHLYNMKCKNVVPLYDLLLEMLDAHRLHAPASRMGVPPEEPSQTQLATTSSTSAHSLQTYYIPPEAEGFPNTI
The test can be described thus: Estrogen receptor binding (displacement of tritiated estradiol). Conditions: for agonist or antagonistic activity to estrogens: concluded from receptor affinity. Here is the method: E. Estrogen receptor of uterus of mice
Immature female mice 18 to 21 days old were killed and the uterus were removed and homogenized at 0° C. with a polytetrafluoroethylene-glass Potter in a buffered TS solution consisting of 10 mM, Tris, 0125M Saccharose, HCl for a pH of 7.4 at a rate of 1 g of tissue per 25 ml of TS. The homogenate was then ultracentrigued at 105,000 g for 90 minutes at 0° C. and aliquoits of the resulting […] were incubated at 0° C. for a time (t) with a constant concentration (T) of tritiated estradiol in the presence of increasing concentrations (0 to 1000×10^-9 M) of either cold estradiol or cold test compound. The concentration of tied tritiated estradiol (B) was measured for each incubate by the technique of adsorption on carbon-dextran.
as §1, §2

The subject of test [4] is uterine endometrium. Briefly: Progestomimetic activity, oral, change in uterine endometrium (McPhail). Conditions: progesterone 0.2 mg/kg subcutaneously. In kind it is in vivo, immature female rabbits. Here is the method:
(§3) IV. Progestomimetic and Anti-progestomimetic Activity
(§4) a) Groups of immature female rabbits weighing about 1 kg had administered to them subcutaneously from day 1 to day 5, 5 μg of estradiol. The product tested was afterward administered orally from day 8 to day 11 in a volume of 0.5 cm^3 of water containing 0.5% of carboxymethyl cellulose and 0.2% of Tween. On day 12, the rabbits were sacrificed, their uteruses were retained and fixed in Bouin's solution and histologically studied.
(§5) The changes in the uterine endometrium were noted according to the method of McPhail.

Test [5] deals with uterine endometrium. Briefly: Anti-progestomimetic activity versus progesterone, oral, change in uterine endometrium (McPhail). In kind it is in vivo, immature female rabbits. Conditions: progesterone 0.2 mg/kg subcutaneously, alone. How it is done:
as §3, §4, §5

Test [6] concerns uterine endometrium. The test can be described thus: Anti-progestomimetic activity versus progesterone, intrauterine, change in uterine endometrium (McPhail). In kind it is in vivo, immature female rabbits. Conditions: progesterone alone 10 μg/rabbit, method of McPhail. Here is the method: Groups of three immature female rabbits weighing about 1 kg were topically treated on the dorsal skin with 25 μg of estradiol in 10 μl of ethanol on day 1. On day 4 the product to be tested dissolved in 0.1 ml, of sesame oil containing 5% benzyl alcohol was introduced into a part of the uterus isolated between two ligatures. On the sixth day the animals were sacrificed, their uteruses retained and fixed in Bouin's solution for histological examination. Changes in the uterine endometrium were noted after the method of McPhail.

The structures appear in SMILES notation.

Regarding `CN(C)CCOc1ccc([C@H]2C[C@]3(C)[C@@H](O)CC[C@H]3[C@@H]3CCc4cc(O)ccc4[C@H]32)cc1` [Example 13, 11β-[4-(2-dimethylaminoethoxy)-phenyl]-Δ^1,3,5(10) -estratriene-3,17β-diol], the “relative affinity of tieing (ARL), Androgen” value (“relative affinity … Androgen” for short) in test [1] (incubation 1/2H at 0° C.) stood at 5; in test [1] (incubation 24 H at 0° C.) it was 6. In test [2], the “relative affinity of tieing (ARL), Glucocorticoid” value (shortened to “relative affinity … Glucocorticoid”) is 3,9. In addition, the “agonist or antagonistic activity to estrogens” value in test [3] is “present an agonist or antagonistic activity to estrogens”. Besides, the “relative affinity of tieing (ARL), Estrogen” value (from here on “relative affinity … Estrogen”) in test [3] (incubation 2 H at 0° C.) was 78; in test [3] (incubation 5 H (25° C.)), 239.
For the molecule `CN(C)CCOc1ccc([C@H]2C[C@]3(C)[C@@H](O)CC[C@H]3[C@@H]3CCc4ccccc4[C@H]32)cc1` [Example 14, 11β-[4-(2-dimethylaminoethoxy)-phenyl]-Δ^1,3,5(10) -estratriene-17β-ol], the “relative affinity … Androgen” value in test [1] (incubation 1/2H at 0° C.) is 10,6; in test [1] (incubation 24 H at 0° C.), 0,5. The “relative affinity … Glucocorticoid” value in test [2] is 0,4. Further, the “agonist or antagonistic activity to estrogens” value in test [3] is listed as “present an agonist or antagonistic activity to estrogens”. Moreover, the results for the “relative affinity … Estrogen” value in test [3] (incubation 2 H at 0° C.) and in test [3] (incubation 5 H (25° C.)) were 4,1 and 1,4, respectively.
For `CN(C)CCOc1ccc2c(c1)CC[C@@H]1[C@@H]2[C@@H](c2ccccc2)C[C@]2(C)[C@@H](O)CC[C@@H]12` [Example 15, 3-(2-dimethylamino-ethoxy)-11β-phenyl-Δ^1,3,5(10) -estratriene-17β-ol], the figures for the “relative affinity … Androgen” value in test [1] (incubation 1/2H at 0° C.) and in test [1] (incubation 24 H at 0° C.) were 1,3 and 0,2, respectively. In test [2], the “relative affinity … Glucocorticoid” value is 2. Further, the “relative affinity … Estrogen” value in test [3] (incubation 2 H at 0° C.) and in test [3] (incubation 5 H (25° C.)) was 0,1 in each case.
Regarding `CC(=O)[C@H]1CC[C@H]2[C@@H]3CCC4=CC(=O)CC[C@]4(C)[C@H]3CC[C@]12C` [Progesterone, progesterone, reference compound], the “CHANGE IN THE ENDOMETRIUM” value in the test on uterine endometrium [4] is recorded as 3.2 McPHAIL UNTS; with uterine endometrium [5] it was 3.0 McPHAIL UNTS; in the test on uterine endometrium [6] it was 2.7.
